Assay results: US6368529B1, “Lignocellulosic composite” (U.S. Borax Inc., priority 2000, dated 2002)

Experiments:
[1] = Borate content of composite after two weeks water leaching; type: physicochemical; settings: leached two weeks
Method: (§1) The panels to be leached (4.5″×4.5″) were edge sealed with an epoxy sealant and leached for two weeks. Leaching began with pressure treatment of the specimens with water for 30 minutes under vacuum and one hour under pressure. The specimens were removed from the pressure treatment chamber and the residual water was changed after two hours, then daily for the remainder of the leaching period. Afterward, they were trimmed to remove the sealed edges and cut into analytical/soil block test samples. Unleached and leached analytical/soil block samples for each board type were separately randomized. Fifteen were analyzed for borate content and ten were retained for the soil block decay test.

[2] = test system: Trametes versicolor (MAD 697); assay: Soil block decay test (AWPA E10-87), white rot; type: cell-based; settings: for Comparison with zinc borate against T. versicolor: after leaching
Source text: (§2) Wood flakeboard was manufactured by conventional wood processing techniques, incorporating various borates at a range of concentrations, from 0.5 to 2.0% boric acid equivalent (BAE). Boric acid (H3BO3) equivalent is a commonly used convention for comparing various borates on an equivalent contained-boron basis. For each borate/loading combination, fifteen pounds of aspen (Populus tremuloides) furnish having an average particle size of about 2.5×0.75×0.025 inches, was blended with 0.75 pounds (5%) Rubinate 1840 (product of ICI), a polymeric methylene diphenyl diisocyanate adhesive, 0.11 pounds (0.75%) of Cascowax EW 403HS (product of Borden) and various concentrations of nine test borates. For each borate/loading combination, three 18″×18″ composite boards of 0.5 inch thickness were formed by pressing for 210 seconds at (180 seconds pressure, 30 seconds pressure release) at 204.5° C. (the pressure was kept in excess of 6000 psi during the pressure cycle). Each board was trimmed to 15″×15″ and cut to produce internal bond and analytical/soil block specimens for evaluation. Replicates were cut from the inner portion of the boards. Four internal bond, two leaching panels and twenty analytical/soil block specimens were cut from each board.
as §1
(§3) The soil block test was conducted in accordance with AWPA E10-87, with the exception that soil block dimensions were 1.0″×1.0″×0.5″. The fungi used were Gloeophyllum trabeum (ATCC 11539) for brown rot test and Trametes versicolor (MAD 697) for white rot test. An untreated composite control was run both unleached and leached. Solid southern yellow pine and birch were also run as unleashed controls against G. trabeum and T. versicolor, respectively as a test of fungal vigor.

[3] = Bulk solids flow testing, J. R. Johanson Indicizer System; type: physicochemical; settings: for Hopper Index Stainless Steel / Chute Index Stainless Steel: 304-2B Stainless Steel; for Hopper Index Stainless Steel / Hopper Index Plastic / Hopper Index Carbon Steel: maximum angle from the vertical, larger is better; for Chute Index Stainless Steel / Chute Index Plastic / Chute Index Carbon Steel: minimum angle from horizontal, smaller is better; for Hopper Index Plastic / Chute Index Plastic: Tivar UHMWPE plastic; for Hopper Index Carbon Steel / Chute Index Carbon Steel: aged carbon steel; for Arching Index / Ratholing Index: multiple of the discharge opening, less than 1 necessary for free flow, average of 3-6 tests
Source text: Bulk solids flow testing was done using the J. R. Johanson Indicizer System, including a Hang-up Indicizer and Hopper Indicizer, manufactured by J R Johanson, Inc. 712 Fiero Lane #37, San Luis Obispo, Calif. 93401. The test procedures are described in detail in their company literature (BULK SOLIDS INDICES TESTING, Hang-up Indicizer™ Instruction Manual ©JR Johanson, Inc. 1991 and BULK SOLIDS INDICES TESTING, Hopper Indicizer™ Instruction Manual ©JR Johanson, Inc. 1991). The results are presented in the following Table 3 as the Arching Index, Ratholing Index, Hopper Index and Chute Index, which are the average of several tests (3-6). The meaning and usefulness of these flow indices in evaluating the flow properties of bulk solids are also described in literature from JR Johanson, Inc., including Binside Scoop™, Vol. 7, No. 2, Fall 1994, Binside Scoop™, Vol. 8, No. 3, Winter 1995, and “Bulk solids Flow Indices—A Simplified Evaluation system”, by Jerry R. Johanson, ©JR Johanson, 1991.
Arching Index—A tendency of a cohesive material is to plug up the opening of a bin by forming an “arch” over the discharge opening. The arching index is given as a multiple of the discharge opening, so less than 1 is necessary for free flow. Numbers greater than 1 reflect a need to enlarge the opening.
Ratholing Index—A tendency of a cohesive material is to hang up on the sides of a bin while an open hole forms in the center and flow ceases. Rathole indices are also given as a multiple of the discharge opening and a number of less than 1 is necessary for free flow. Numbers greater than 1 mean the bins should be redesigned.
Hopper Index—The maximum angle, measured in degrees from the vertical, that is required for the conical portion of a hopper in order to produce reliable mass flow. A larger number is better.
Chute Index—The minimum angle, measured in degrees from horizontal, required for flow down a chute and to prevent material buildup at impact areas. A smaller number is better. Chute indices may often be close to the angle of repose.
Both hopper and chute indices measurements involve friction over a specified surface and measurements are made using substrates of the material of construction. The substrates used for these tests are 304-2B Stainless Steel, aged carbon steel and Tivar UHMWPE (ultra high molecular weight polyethylene) plastic.

[4] = test system: Gloeophyllum trabeum (ATCC 11539); assay: Soil block decay test (AWPA E10-87), brown rot; type: cell-based; settings: for Comparison with zinc borate against G. trabeum: after leaching
Source text: as §2, §1, §3

[5] = target loading 0.5% BAE (0.09% B)
[6] = target loading 1.0% BAE (0.17% B)
[7] = target loading 2.0% BAE (0.35% B)
[8] = leached two weeks, target loading 0.5% BAE (0.09% B)
[9] = leached two weeks, target loading 1.0% BAE (0.17% B)
[10] = leached two weeks, target loading 2.0% BAE (0.35% B)
[11] = unleached aspen flakeboard, target loading 0.5% BAE (0.09% B)
[12] = unleached aspen flakeboard, target loading 1.0% BAE (0.17% B)
[13] = unleached aspen flakeboard, target loading 2.0% BAE (0.35% B)

| Molecule | Assay % B [1, 5] | Assay % B [1, 6] | Assay % B [1, 7] | Mean % Wt. Loss T. versicolor [2, 8] | Mean % Wt. Loss T. versicolor [2, 9] | Mean % Wt. Loss T. versicolor [2, 10] | Mean % Wt. Loss T. versicolor [2, 11] | Mean % Wt. Loss T. versicolor [2, 12] | Mean % Wt. Loss T. versicolor [2, 13] | Chute Index Plastic [3] | Mean % Wt. Loss G. trabeum [4, 8] | Mean % Wt. Loss G. trabeum [4, 9] | Mean % Wt. Loss G. trabeum [4, 10] | Mean % Wt. Loss G. trabeum [4, 11] | Mean % Wt. Loss G. trabeum [4, 12] | Mean % Wt. Loss G. trabeum [4, 13] | further results |
| --- | --- | --- | --- | --- | --- | --- | --- | --- | --- | --- | --- | --- | --- | --- | --- | --- | --- |
| Colemanite [Colemanite (1)] | 0.03 % B | 0.07 % B | 0.19 % B | 27.5% | 8.4% | 2.5% | 3.9% | 3.7% | 2.4% | 90 degrees | 5.5% | 1.5% | 1.0% | 0.6% | 1.0% | 1.5% | Comparison with zinc borate against T. versicolor [2]: roughly comparable to zinc borate; Hopper Index Stainless Steel ([3]; Glass Grade): 14 degrees; Chute Index Stainless Steel ([3]; Glass Grade): 76 degrees; Hopper Index Plastic ([3]; Glass Grade): 8 degrees; Hopper Index Carbon Steel ([3]; Glass Grade): 3 degrees; Chute Index Carbon Steel ([3]; Glass Grade): 82 degrees; Arching Index ([3]; Glass Grade): 0.7; Ratholing Index ([3]; Glass Grade): 4.7; Comparison with zinc borate against G. trabeum [4]: roughly comparable to zinc borate |
| O=BOB=O [Boric Oxide (60m), Boric Oxide, reference compound] | 0.02 % B | 0.03 % B | 0.07 % B | 50.4% | 35.8% | 23.2% | 7.6% | 3.6% | 3.7% |  | 8.0% | 6.0% | 3.3% | 1.6% | 0.7% | 1.1% |  |
| Hydroboracite | 0.05 % B | 0.06 % B | 0.13 % B | 27.1% | 21.0% | 4.5% | 2.8% | 3.6% | 2.2% |  | 9.4% | 4.2% | 1.8% | 1.1% | 1.0% | 2.2% |  |
| Ulexite | 0.03 % B | 0.08 % B | 0.11 % B | 22.3% | 11.0% | 7.2% | 13.9% | 3.4% | 3.0% |  | 6.6% | 1.0% | 1.3% | 1.4% | 0.8% | 1.8% |  |
| Colemanite [Colemanite (2)] | 0.04 % B | 0.08 % B | 0.18 % B | 19.9% | 5.1% | 2.2% | 5.1% | 2.3% | 2.2% | 90 degrees | 3.4% | 1.6% | 1.3% | 0.8% | 0.6% | 1.1% | Comparison with zinc borate against T. versicolor [2]: roughly comparable to zinc borate; Hopper Index Stainless Steel ([3]; listed as Colemanite F): 1.3 degrees; Chute Index Stainless Steel ([3]; listed as Colemanite F): 90 degrees; Hopper Index Plastic ([3]; listed as Colemanite F): 4.2 degrees; Hopper Index Carbon Steel ([3]; listed as Colemanite F): 2.7 degrees; Chute Index Carbon Steel ([3]; listed as Colemanite F): 90 degrees; Arching Index ([3]; listed as Colemanite F): 0.4; Ratholing Index ([3]; listed as Colemanite F): 3.9; Comparison with zinc borate against G. trabeum [4]: roughly comparable to zinc borate |
| Gowerite | 0.04 % B | 0.07 % B | 0.09 % B | 24.7% | 14.7% | 11.8% | 5.5% | 3.1% | 2.6% |  | 7.4% | 5.8% | 3.1% | 0.9% | 0.9% | 1.3% |  |
| O=BOB=O [Boric Oxide (4m), Boric Oxide, reference compound] | 0.02 % B | 0.04 % B | 0.09 % B | 34.3% | 29.5% | 9.5% | 7.5% | 9.0% | 2.9% |  | 15.5% | 7.4% | 3.0% | 2.6% | 1.4% | 1.7% |  |
| Zinc Borate [reference compound] | 0.05 % B | 0.10 % B | 0.23 % B | 22.9% | 7.0% | 2.0% | 8.3% | 2.9% | 1.6% | 58 degrees | 2.3% | 0.9% | 0.8% | 0.9% | 0.8% | 1.0% | Hopper Index Stainless Steel [3]: 13 degrees; Chute Index Stainless Steel [3]: 38 degrees; Hopper Index Plastic [3]: 13 degrees; Hopper Index Carbon Steel [3]: 12 degrees; Chute Index Carbon Steel [3]: 44 degrees; Arching Index [3]: 0.5; Ratholing Index [3]: 2.9 |
